Results: the NIST ThermoML archive (doi:10.1016/j.jct.2016.12.007)
± gives the expanded uncertainty stated by the source.

What was measured:
[1] = wn = mass fraction of the nth substance listed; conditions: 101.3 kPa, Liquid, Vibrating tube method
[2] = refractive index (Na D-line) (dimensionless); wn = mass fraction of the nth substance listed; conditions: 101.3 kPa, Liquid, Standard Abbe refractometry

Row | Structure (SMILES) | mass density ([1]; 288.15 K, w1 = 0.4695) [kg/m3] | mass density ([1]; 298.15 K, w1 = 0.4841) [kg/m3] | mass density ([1]; 308.15 K, w1 = 0.5041) [kg/m3] | refractive index ([2]; 288.15 K, w1 = 0.4695) | refractive index ([2]; 298.15 K, w1 = 0.4841) | refractive index ([2]; 308.15 K, w1 = 0.5041) | mass density ([1]; 288.15 K, w1 = 0.2622) [kg/m3] | mass density ([1]; 298.15 K, w1 = 0.2625) [kg/m3] | mass density ([1]; 308.15 K, w1 = 0.2666) [kg/m3] | refractive index ([2]; 288.15 K, w1 = 0.2622) | refractive index ([2]; 298.15 K, w1 = 0.2625) | refractive index ([2]; 308.15 K, w1 = 0.2666)
1 | [Cl-].[Rb+] [rubidium chloride] + O | 1480.4 ± 4.3 | 1500.3 ± 4.3 | 1517.5 ± 4.3 | 1.3874 ± 0.0005 | 1.3883 ± 0.0005 | 1.3894 ± 0.0005 |  |  |  |  |  | 
2 | [Cl-].[Na+] [sodium chloride] + O |  |  |  |  |  |  | 1201 ± 4.2 | 1197.8 ± 4.2 | 1193.6 ± 4.2 | 1.3811 ± 0.0005 | 1.3795 ± 0.0005 | 1.3781 ± 0.0005
